Measured values published in article PMC4504005, “Structural Basis for Receptor Activity-Modifying Protein-Dependent Selective Peptide Recognition by a G Protein-Coupled Receptor” (Molecular cell, 2015).
Where two headings read alike, the source gives them in different places. Ends that are not written are not given here.

Columns and labels:
[1] = target: T1, MBP-RAMP1 ECD-(GSA)3-CLR ECD-H6 (Homo sapiens, UniProt O60894+Q16602); assay: Competition AlphaScreen, CGRP receptor ECD complex; type: binding; details: for binding of swap peptide: competition AlphaScreen, Figures 6E-6G, 100 nM protein, 100 nM biotin-CGRP
T1 construct: made in house; host or cells: E. coli (co-expressed with DsbC)
Source text: (§1) Plasmid construction, mutagenesis, protein expression, purification, and the AlphaScreen peptide-binding assay were as previously described with minor modifications to the AlphaScreen assay ([Hill and Pioszak, 2013]; [Moad and Pioszak, 2013]). Synthetic peptides were from RS Synthesis, Bachem, or were synthesized in-house. Details are in Supplemental Experimental Procedures.
(§2) Supplemental Experimental Procedures
(§3) Plasmid construction and protein production and characterization. Bacterial pETDuet1 […]
(§4) numbers indicated) fusion proteins co-expressed with DsbC were constructed using the Gibson Assembly cloning method with Gibson Assembly master mix (New England […]
(§5) 2014). Site directed mutagenesis was performed with the QuikChange II kit (Agilent) or using the Gibson Assembly method. Primer sequences are available upon request. All constructs were verified by automated DNA sequencing.
(§6) The tethered ECD fusion proteins were expressed in E. coli, purified, and characterized for peptide binding with an AlphaScreen peptide binding assay as previously described (Moad and Pioszak, 2013), except that the AlphaScreen competition assays also included 0.3% (v/v) Triton X-100 in the reaction buffer. Triton X-100 […]
(§7) reactions in which the donor and acceptor beads were brought together by a Biotin-(Gly)6-(His)6 peptide. The binding experiments were conducted at least three times with each independent experiment performed with duplicate samples. pIC50 values are stated as the mean of the replicate independent experiments ± S.E.M. Although slight variation […]
(§8) Peptides. […]

[2] = target: T2, MBP-RAMP2 ECD [L106R]-(GSA)3-CLR ECD-H6 (Homo sapiens, UniProt O60895+Q16602, L106R); assay: Competition AlphaScreen, AM1 receptor ECD complex [L106R]; type: binding; details: for binding of swap peptide: competition AlphaScreen, Figures 6H-6J
T2 construct: MBP-hRAMP2.55-140 [L106R]-(Gly-; Ser-Ala)3-hCLR.29-144-H6 proteins; made in house; host or cells: E. coli (co-expressed with DsbC)
Source text: as §1, §2, §3, §4, §5, §6, §7, §8

[3] = test system: MBP-hRAMP1.24-111-(Gly-Ser-Ala)3-hCLR.29-144-H6; assay: Apparent aggregation in AlphaScreen competition assay, RAMP1-(GSA)3-CLR protein; type: physicochemical, human; details: reaction buffer with 0.3% (v/v) Triton X-100, which minimized but did not completely prevent it; data not shown
Source text: as §2, §3
(§9) numbers indicated) fusion proteins co-expressed with DsbC were constructed using the Gibson Assembly cloning method with Gibson Assembly master mix (New England Biolabs). Plasmids for expression of tagged full-length CLR and RAMP1 or -2 receptors in mammalian cells were previously described (Barwell et al., 2010; Watkins et al., 2014). Site directed mutagenesis was performed with the QuikChange II kit (Agilent) or using the Gibson Assembly method. Primer sequences are available upon request. All constructs were verified by automated DNA sequencing.
as §6
Ser-Ala)3-hCLR.29-144-H6 proteins (data not shown).
CGRP analog prevented it from fully competing the binding signal to background levels […]
receptor crystallization construct are likely a bit higher than the true values. Competitor

[4] = target: T3, MBP-RAMP2 ECD-(GS)5-CLR ECD-H6 (WT RAMP2 ECD-CLR ECD fusion) (Homo sapiens, UniProt O60895+Q16602); assay: Competition AlphaScreen, WT RAMP2 ECD-CLR ECD fusion; type: binding; details: text (Fig S1C), approximate
T3 construct: MBP-hRAMP2.55-140-(Gly-Ser-Ala)3-hCLR.29-144-H6; made in house; host or cells: E. coli
Source text: as §1, §2, §3, §9, §6

[5] = Figure 6I, 100 nM protein, 100 nM biotin-AM, 0.3% Triton X-100, mean ± SEM, at least three independent experiments in duplicate, read-out: pIC50 (converted)
[6] = 100 nM protein, 100 nM biotin-AM

| IC50 [2, 5] [µM] | Compound | binding of swap peptide [1] | binding of swap peptide [2, 6] | also measured |
| --- | --- | --- | --- | --- |
| 16.2 | FVPTDVGPFAY-NH2 [CGRPmut [F37Y]] | retained CGRP receptor ECD complex binding | gained the ability to bind the AM1 receptor ECD complex as strongly as AM | – |
| – | DKDNVAPRSKISPQGY-NH2 [AM(37–52)] | – | – | IC50 ([2]; Figure 6J, 100 nM protein, 100 nM biotin-AM, 0.3% Triton X-100, mean ± SEM, at least three independent experiments in duplicate, read-out: pIC50 (converted)): 10 µM |
| – | CC(C)[C@H](NC(=O)[C@H](CC(=O)O)NC(=O)[C@@H](NC(=O)[C@@H]1CCCN1C(=O)[C@@H](NC(=O)[C@@H](N)Cc1ccccc1)C(C)C)[C@@H](C)O)C(=O)NCC(=O)N1CCC[C@H]1C(=O)N[C@@H](Cc1ccccc1)C(=O)N[C@@H](C)C(=O)N[C@@H](Cc1ccccc1)C(N)=O [CGRPmut] | – | – | IC50 [1]: 0.457 µM; apparent aggregation [3]: apparent aggregation |
| 14.5 | CC[C@H](C)[C@H](NC(=O)[C@H](CCC(N)=O)NC(=O)[C@H](Cc1c[nH]cn1)NC(=O)[C@H](C)NC(=O)[C@H](CC(C)C)NC(=O)[C@H](CCCCN)NC(=O)[C@H](CCC(N)=O)NC(=O)[C@@H](NC(=O)[C@@H](N)[C@@H](C)O)C(C)C)C(=O)N[C@@H](Cc1ccc(O)cc1)C(=O)N[C@@H](CCC(N)=O)C(=O)N[C@@H](Cc1ccccc1)C(=O)N[C@H](C(=O)N[C@@H](CC(=O)O)C(=O)N[C@@H](CCCCN)C(=O)N[C@@H](CC(=O)O)C(=O)N[C@@H](CCCCN)C(=O)N[C@@H](CC(=O)O)C(=O)N[C@@H](CC(N)=O)C(=O)N[C@H](C(=O)N[C@@H](C)C(=O)N1CCC[C@H]1C(=O)N[C@@H](CCCNC(=N)N)C(=O)N[C@@H](CO)C(=O)N[C@@H](CCCCN)C(=O)N[C@H](C(=O)N[C@@H](CO)C(=O)N1CCC[C@H]1C(=O)N[C@@H](CCC(N)=O)C(=O)NCC(=O)N[C@@H](Cc1ccc(O)cc1)C(N)=O)[C@@H](C)CC)C(C)C)[C@@H](C)O [AM(22-52)NH2] | – | – | IC50 [4]: 5 to 15 µM; IC50 ([2]; AlphaScreen competition, text (Figs S1C, S1H), approximate, read-out: IC50): 5 to 15 µM; IC50 ([2]; Figure 6H, 100 nM protein, 100 nM biotin-AM, 0.3% Triton X-100, mean ± SEM, at least three independent experiments in duplicate, read-out: pIC50 (converted)): 12 µM |
| – | AM(37–52)NH2 [Y52F]: C-terminal residue swap of minimal ECD complex-binding AM peptide | did not gain increased affinity for the CGRP receptor ECD complex | exhibited significantly diminished binding to the AM1 receptor ECD complex | – |
